From US11149062B2, “HDAC inhibitors and methods of treatment using the same” (UWM Research Foundation, Inc., priority 2015, dated 2021)

How the values were obtained:
RFX393 (renal) = assay: MTT antiproliferative assay, RFX393; format: cell-based; details: MTT, 48 h; read-out: Antiproliferative Activity GI50, Renal RFX393
Protocol: (§1) Briefly, the tumor cells (1×10^4 cells/well) were seeded in 96-well microtiter plates and incubated for 24 h at 37° C. Following incubation, the media was replaced with fresh media containing the above compounds at concentrations ranging from 1 μM to 1 pM diluted in DMSO and incubated for an additional 48 h. Drugs were run in duplicate or triplicate and control cells received fresh media with DMSO concentration equivalent to the treatment groups. […] After aspirating the culture medium, 200 μL of DMSO was added to dissolve the precipitate and the resulting solution was measured for absorbance at 570 nm with a reference wavelength of 690 nm using a microplate reader (Infinite M200 Pro TECAN).

Recombinant human HDAC6 = molecular target: T1, Recombinant human HDAC6 (Homo sapiens, UniProt Q9UBN7); assay: HDAC-Glo I/II assay, HDAC6; format: biochemical
T1 construct: purchased BPS Bioscience Inc
T1 sequence (Q9UBN7 1-1215): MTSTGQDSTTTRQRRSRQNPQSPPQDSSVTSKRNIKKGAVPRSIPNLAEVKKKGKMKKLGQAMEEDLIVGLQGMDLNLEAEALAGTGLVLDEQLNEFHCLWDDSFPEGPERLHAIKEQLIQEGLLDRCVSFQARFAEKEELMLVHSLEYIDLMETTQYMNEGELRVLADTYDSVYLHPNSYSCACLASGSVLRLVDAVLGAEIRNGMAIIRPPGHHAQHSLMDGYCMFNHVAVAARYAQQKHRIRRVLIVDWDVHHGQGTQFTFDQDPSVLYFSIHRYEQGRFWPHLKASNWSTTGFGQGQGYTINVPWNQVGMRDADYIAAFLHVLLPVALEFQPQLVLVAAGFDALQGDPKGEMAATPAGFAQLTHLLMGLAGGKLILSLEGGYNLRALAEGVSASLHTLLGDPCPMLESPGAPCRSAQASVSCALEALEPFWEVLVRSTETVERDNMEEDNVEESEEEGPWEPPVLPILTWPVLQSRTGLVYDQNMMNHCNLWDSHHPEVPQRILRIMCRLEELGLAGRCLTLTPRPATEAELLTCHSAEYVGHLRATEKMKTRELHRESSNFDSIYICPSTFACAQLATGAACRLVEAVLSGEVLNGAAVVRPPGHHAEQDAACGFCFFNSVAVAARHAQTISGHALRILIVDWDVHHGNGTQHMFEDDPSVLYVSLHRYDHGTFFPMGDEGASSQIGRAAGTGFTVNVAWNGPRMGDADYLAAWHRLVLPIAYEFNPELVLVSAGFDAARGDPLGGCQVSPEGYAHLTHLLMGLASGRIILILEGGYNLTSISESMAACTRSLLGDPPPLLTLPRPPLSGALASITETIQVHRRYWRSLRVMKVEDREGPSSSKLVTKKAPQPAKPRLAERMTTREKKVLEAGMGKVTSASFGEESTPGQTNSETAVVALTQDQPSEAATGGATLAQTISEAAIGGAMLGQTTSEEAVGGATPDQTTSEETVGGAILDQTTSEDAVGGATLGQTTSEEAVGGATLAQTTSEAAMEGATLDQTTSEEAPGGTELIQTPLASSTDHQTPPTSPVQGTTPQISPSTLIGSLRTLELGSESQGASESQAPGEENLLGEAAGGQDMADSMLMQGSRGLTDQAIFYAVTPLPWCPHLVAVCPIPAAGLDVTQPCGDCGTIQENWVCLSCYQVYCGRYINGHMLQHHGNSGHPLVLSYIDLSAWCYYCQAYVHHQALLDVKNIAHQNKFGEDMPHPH
Protocol: (§2) The purified compounds of all fragments and natural product derivatives were evaluated for inhibitory effects on three different classes of HDAC proteins (class I, IIa, and IIb). […] All activity was determined by using a fluorescence-based in vitro assay. Class I HDAC proteins that were evaluated were HDAC1, HDAC2, HDAC3, HDAC8, HDAC4, and HDAC6. Class IIa HDAC protein were HDAC4 and the Class IIb HDAC protein were HDAC6.
HDAC-Glo™ I/II Assay and Screening System (Promega) was used to determine the HDAC inhibitory activity. […]
All test compounds were firstly dissolved in DMSO to make 10 mM stock solution. […] Finally, the plate was incubated at room temperature for an additional 30 minutes before the luminescence was measured on a Synergy HT plate reader (Bio-Tek). The luminescence intensity data were analyzed using GraphPad Prism 5 (GraphPad Software). In the absence of any test compound, the luminescence intensity (I100) in each data set was defined as 100% activity. In the absence of both of HDAC enzymes and test compound, the luminescence intensity (I0) in each data set was defined as 0% activity. The relative activity (%) in the presence of each compound was calculated according to the following equation: % activity=(I−I0)/(I100−I0), where I=the luminescence intensity if a compound is present in the reaction. […]

Recombinant human HDAC3 = molecular target: T2, Recombinant human HDAC3 (Homo sapiens, UniProt O15379); assay: HDAC-Glo I/II assay, HDAC3; format: biochemical; details: Class I HDAC; compounds reduced by TCEP prior to assay
T2 construct: purchased BPS Bioscience Inc
Protocol: as §2
HDAC-Glo™ I/II Assay and Screening System (Promega) was used to determine the HDAC inhibitory activity. Recombinant human HDAC1, HDAC2, HDAC3, HDAC4, HDAC6 and HDAC8 were purchased from BPS Bioscience Inc. The inhibitory activities of the test compounds against recombinant HDAC were performed according to reagent suppliers' protocols.
All test compounds were firstly dissolved in DMSO to make 10 mM stock solution. A certain amount of stock solution was diluted to 1 mM by DMSO and then reduced by tris(2-carboxyethyl)phosphine hydrochloride (TCEP) in a molar ration of 1:1.5 for 20 min at ambient temperature prior to being assayed. After reduction, a series of fivefold dilutions of each reduced compound were prepared with HDAC-Glo buffer and 25 μL of each dilution was added into a well on a 96-well plate. HDAC enzymes were diluted to the desired concentrations with HDAC-Glo buffer and 25 μL of each diluted enzyme was dispensed into a well to mix with 25 μL of testing compound at room temperature for 30-60 seconds. After the reaction mixture had been incubated at room temperature for 1 hour, 50 μL of HDAC-Glo reagent was added to each reaction well and mixed up for 30-60 seconds. Finally, the plate was incubated at room temperature for an additional 30 minutes before the luminescence was measured on a Synergy HT plate reader (Bio-Tek). The luminescence intensity data were analyzed using GraphPad Prism 5 (GraphPad Software). In the absence of any test compound, the luminescence intensity (I100) in each data set was defined as 100% activity. In the absence of both of HDAC enzymes and test compound, the luminescence intensity (I0) in each data set was defined as 0% activity. The relative activity (%) in the presence of each compound was calculated according to the following equation: % activity=(I−I0)/(I100−I0), where I=the luminescence intensity if a compound is present in the reaction. Experiments were performed in triplicate and the calculated mean values were used for plotting.

HeLa (cervical cancer) = assay: MTT antiproliferative assay, HeLa; format: cell-based; details: Homo sapiens, MTT, 48 h, read-out: Antiproliferative Activity GI50, Cervical HeLa
Protocol: as §1

T2 sequence (O15379 whole entry): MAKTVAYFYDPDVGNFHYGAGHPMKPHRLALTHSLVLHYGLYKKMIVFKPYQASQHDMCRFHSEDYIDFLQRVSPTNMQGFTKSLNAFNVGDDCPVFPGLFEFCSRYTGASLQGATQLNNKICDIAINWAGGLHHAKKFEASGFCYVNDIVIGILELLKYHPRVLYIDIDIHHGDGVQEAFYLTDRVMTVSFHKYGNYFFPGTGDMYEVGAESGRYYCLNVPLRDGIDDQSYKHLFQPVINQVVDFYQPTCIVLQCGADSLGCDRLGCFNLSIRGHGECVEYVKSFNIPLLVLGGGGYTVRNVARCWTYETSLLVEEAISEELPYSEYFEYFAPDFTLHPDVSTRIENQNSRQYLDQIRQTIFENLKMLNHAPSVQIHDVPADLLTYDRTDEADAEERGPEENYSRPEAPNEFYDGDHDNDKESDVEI
T2 sequence (Q9Y618 395-489 partner limits assumed): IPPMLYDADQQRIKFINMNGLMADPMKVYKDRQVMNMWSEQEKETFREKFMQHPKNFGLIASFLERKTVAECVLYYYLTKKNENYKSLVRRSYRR

CSCC[C@H]1NC(=O)CC(O)/C=C/CCSSC[C@H](C(=O)O)NC1=O (stereo partly drawn) [TDF3, (4S,7R,12E)-11-hydroxy-7-[2-(methylsulfanyl)ethyl]-6,9-dioxo-1,2-dithia-5,8-diazacyclopentadec-12-ene-4-carboxylic acid] was tested, and the GI50 (RFX393 (renal)) was 200 nM, the “inhibitory activity toward HDAC6 (in words)” value (Recombinant human HDAC6) was “no inhibitory activity” and the IC50 (Recombinant human HDAC3) was 819 nM. It also gave a GI50 (HeLa (cervical cancer)) of 600 nM.
COC(=O)[C@H]1CSSCC/C=C/C(O)CC(=O)N[C@H](CCSC)C(=O)N1 (stereo partly drawn) [TDF3m, Methyl (4S,7R,12E)-11-hydroxy-7-[2-(methylsulfanyl)ethyl]-6,9-dioxo-1,2-dithia-5,8-diazacyclopentadec-12-ene-4-carboxylate] was tested, and the GI50 (RFX393 (renal)) was 300 nM, the “inhibitory activity toward HDAC6 (in words)” value (Recombinant human HDAC6) was “no inhibitory activity” and the IC50 (Recombinant human HDAC3) was 623 nM. The GI50 (HeLa (cervical cancer)) was 400 nM.
